# Assay results: patent US7033582B2 (Teva Pharmaceutical Industries, Ltd., priority 2000, dated 2006)
# “Also recorded” adds a separate entry of the source. Where two headings read alike, the source gives them in different places.
# Legend:
# MMP-9 = test: MMP enzyme activity in gelatin zymography, test agent in wash and reaction buffer; assay type: biochemical, Baby Hamster Kidney (BHK) cells and human T lymphocytes; conditions: agent in incubation buffers during zymogram development; MMP-9 from BHK cells or T lymphocytes
# Text: The analysis of cell conditioned medium in zymography is a reflection of the amount of MMPs that was produced by the particular culture. […] An inhibitor of MMP activity prevents gelatin degradation by gelatinases and the resultant size of the band of gelatinases would be smaller as compared to that obtained in the absence of inhibitors.
# EAE = conditions: in vivo; cited from earlier work
# [1] = tested on: MMP-9 production by T lymphocytes; test: MMP-9 production by anti-CD3 activated T lymphocytes (zymography of conditioned medium); assay type: cell-based, human; conditions: 25 μg/ml, for 1, 2 or 3 d
# Description: (§1) Heparinized blood was collected from normal volunteers, and subjected to Ficoll-Hypaque (Pharmacia Biotech, Mississauga, Ontario) centrifugation to obtain peripheral blood mononuclear cells (PEMNCs) as described previously (15). After two washes, cells were suspended at a density of 1–2 million/ml in horizontal T-25 flasks (Nunc, Becton Dickinson, Mississauga, Ontario) in the serum free medium, AIM-V (GIBCO/BRL), to which 1 ng/ml of an anti-CD3 antibody (OKT3, compliments of Jack Antel, Montreal, Canada) was added. Three hours after the anti-CD3 addition, the T-25 flasks were stood upright from their horizontal position in order to […] monocytes that had adhered. Floating cells, which were mostly lymphocytes, were left for a period of 72 hours at 37° C. […] Henceforth, given that the majority of cells in the MNC population are T lymphocytes, these will be referred to as T lymphocytes.
# (§2) Cells were left for 69 h at 37° C., then collected, counted and resuspended in fresh AIM-V at density of 500,000 cells per ml. […] Thereafter, 500 μl (250,000 cells) of the suspension was taken for migration assays described below. Alternatively, 100 μl (50,000 cells) of cell suspension was added to each individual well of a 96-well plate already containing microglia or U937 monocytoid cells (see below).
# T lymphocytes [2] = test: Migration assay across fibronectin-coated Boyden chamber; assay type: cell-based, human
# Description: as §2
# To address the migration capacity of T lymphocytes, 2×10^5 T lymphocytes in 500 μl of 2.5% fetal calf serum (FCS) containing AIM-V were seeded into the top compartment of a Boyden chamber (Collaborative Biomedical Products, Bedford, Md.). This chamber consists of two compartments separated by a polycarbonate membrane filter (9 mm in diameter, with 3 μm pores) precoated on its upper surface with fibronectin. Fibronectin was employed to simulate the basal lamina.
# The bottom compartment of the migration chamber contained 10% FCS-supplemented AIM-V; the higher concentration of FCS in the bottom chamber served as a directional gradient (77). After 5 h at 37° C., the content of the lower chamber was collected, and the number of migrated T lymphocytes was counted with the Coulter Counter Z1.
# [3] = tested on: T lymphocyte - U937 co-culture; conditions: pretreatment of the PMA/IFNγ-treated U937 cells instead of T lymphocytes
# Description: as §2
# A human promonocytoid cell line, U937, was also employed. Members of this cell line become microglia-like, as assessed by morphology and expression of cell surface molecules, when treated sequentially with 50 ng/ml of a protein kinase C activator, phorbol-12-myristate-13-acetate (PMA) (time 0–48) and 100 U/ml interferon-γ (IFNγ) (from 48–72 h).
# Cells were used 1–3 days after the IFNγ treatment. As with microglia, 50,000 T lymphocytes in AIM-V was added to individual wells of a 96-well plate already containing 25,000 PMA/IFNγ-treated U937 cells, and conditioned medium was collected after 24 h of co-cultures.
# (§3) Cytokine protein levels in the conditioned medium of microglia-T lymphocyte co-cultures were measured using enzyme-linked immunoabsorbent assay (ELISA) kits bought from BioSource International (Montreal, Canada).
# [4] = tested on: T lymphocyte - adult human microglia co-culture; conditions: added at the time of co-culture instead of pretreatment
# Description: as §2
# Adult human microglia were isolated from the resected brain tissue of patients undergoing surgical resection to treat intractable epilepsy. […] Cells were used for interactions with T lymphocytes in a manner identical to that described for their fetal counter parts.
# as §3
# T lymphocytes [5] = conditions: for total number of cells after 72 h: control 24±2
# Description: as §1, §2
# [6] = tested on: CXCR3 and CXCR4 on U937 cells; conditions: 25 μg/ml, 1 or 3 days
# Text: Chemokine and chemokine receptor expression are currently recognized to be important mechanisms that regulate the influx of leukocytes into the CNS. Notable is the up-regulation of the chemokine IP-10 and its receptor CXCR3 in the lesions of multiple sclerosis patients (74).
# [7] = tested on: MMP-9 production by monocytes; conditions: after 1 day of treatment
# Description: To produce monocyte-enriched cultures, 2×10^5 PBMC were suspended in 100 μl of AIM-V medium and placed into each well of a 96-well plate. One hour after, floating cells were removed to leave behind adherent monocytes. Fresh 100 μl of AIM-V was added per well and cultures were kept at 37° C.
# Supernatant was collected, mixed in a 3.1 ratio (v/v) with 4× gel-loading SDS buffer, and used in zymographic assays. Similarly, for monocytes in wells of 96-well plates, conditioned medium was collected, microfuged, and mixed with 4× gel-loading SDS buffer.
# Zymography is essentially SDS-PAGE except that gelatin is also added to the gel (77, 82). After proteins were resolved based on molecular weight in SDS-PAGE, the gel was washed in a Triton X-100 buffer in order to remove SDS which thus allows protein renaturation. In a calcium-containing “reaction buffer” (77), gelatinases (MMP-2 and -9) degraded gelatin in their immediate vicinity (other members of MMPs would also be detected if present in high amounts). Following staining in Coommasie blue, which binds all proteins, and destaining , areas containing gelatinases appeared as clear bands against a dark background, since the gelatin in its immediate vicinity has been degraded. The size of the MMP bands was a reflection of the amount of MMP that was produced by cells, and this was documented by NIH image analysis software.
# experimental GVHD = conditions: higher doses and/or more frequent administration; mice; cited from earlier work
# T-cell responses to MBP = conditions: dose-dependent; cited from earlier work
# MHC class II molecules = conditions: irrespective of MHC restriction, dose-dependent; cited from earlier work
# [8] = tested on: lymphocytes from relapsing-remitting multiple sclerosis patients; conditions: patients on Copolymer 1 compared to untreated multiple sclerosis patients; cited from earlier work
compound,measurement,setting,value
TIMP-1: positive control shown to inhibit MMP activity in the zymography assay,inhibition of MMP-9 enzymatic activity (size of gelatinase band in zymogram),MMP-9,inhibit MMP activity
C=CC[C@H](C(=O)NO)[C@@H](CC(C)C)C(=O)N[C@@H](Cc1ccccc1)C(=O)NC [BB-1101],incidence and severity of EAE,EAE,alleviate
CNC(=O)[C@H](Cc1c[nH]c2ccccc12)NC(=O)[C@@H](CC(=O)NO)CC(C)C [GM6001],incidence and severity of EAE,EAE,alleviate
c1cnc2c(c1)ccc1cccnc12 [phenanthroline],inhibition of MMP-9 enzymatic activity (size of gelatinase band in zymogram),MMP-9,inhibit MMP activity
CNC(=O)[C@@H](NC(=O)[C@@H](CC(=O)NO)CC(C)C)C(C)(C)C [Ro31-9790],incidence and severity of EAE,EAE,alleviate
"L-glutamic acid polymer with L-alanine, L-lysine and L-tyrosine, acetate (salt) [Copolymer 1]",production of MMP-9 by T lymphocytes compared to controls,[1],did not affect
same,inhibition of MMP-9 enzymatic activity (size of gelatinase band in zymogram),MMP-9,dose-dependently reduced; also recorded: inhibits
same,migration rate of pre-treated T lymphocytes versus controls,T lymphocytes [2]; 10 ng/ml MCP-1 or MCP-3 in bottom chamber as chemotactic signal,did not differ
same,migration of T lymphocytes across fibronectin barrier compared to controls,"T lymphocytes [2]; 25 μg/ml pretreatment for 1, 2 or 3 days",did not inhibit; also recorded: did not affect
same,transmigration of activated T lymphocytes,"T lymphocytes [2]; 3-day pretreatment, various concentrations 1 to 50 μg/ml",did not affect
same,cytokine production in subsequent T lymphocyte - U937 interactions,[3],did not influence
same,reducing effect on cytokine production,[4],does not occur
same,number or size of T lymphocyte aggregates after anti-CD3 treatment (proliferation),T lymphocytes [5],does not decrease
same,total number of cells after 72 h,T lymphocytes [5]; 5 μg/ml,26±1 ×10^3
same,total number of cells after 72 h,T lymphocytes [5]; 25 μg/ml,26±2 ×10^3
same,total number of cells after 72 h,T lymphocytes [5]; 50 μg/ml,22±1 ×10^3
same,CXCR4 expression on U937 cells,[6],does not affect
same,monocyte production of MMP-9,[7],unaffected
same,experimental GVHD,experimental GVHD,prevent
same,in vitro T-cell responses to MBP,T-cell responses to MBP,inhibited
same,binding to antigen presenting cells / MHC class II molecules,MHC class II molecules,binds
same,capacity of lymphocytes to transmigrate across a fibronectin barrier,[8],significantly reduced
